Reference: patent US20230167088A1, “1-PYRAZINYLPYRAZOLYL-3-OXYALKYL ACIDS AND THEIR DERIVATIVES, AND THEIR USE FOR CONTROL OF UNDESIRED PLANT GROWTH” (BAYER AKTIENGESELLSCHAFT, priority 2020, published 2023)

Columns and labels:
ECHCG [1] = assay: Herbicidal pre-emergence action 2a (greenhouse pots, visual scoring); assay type: in vivo, Echinochloa crus-galli; conditions: dosage 320 g/ha, visual scoring after about 3 weeks
Method in brief: (§1)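 Seeds were sown in pots, covered with soil, and the compound (WP or EC formulation) was sprayed onto the soil surface as an aqueous suspension or emulsion with 0.5% additive at 600 l/ha water, at 320 g/ha and/or 80 g/ha. Greenhouse growth followed for about 3 weeks, then visual scoring against untreated controls.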

harmful plants = assay: Herbicidal pre-emergence action 2a, summary across species; assay type: in vivo; conditions: Tables B1 to B15 (320 g/ha and/or 80 g/ha)
From the text: (§2) a) Seeds of monocotyledonous and dicotyledonous weed plants and crop plants are placed in plastic or organic plant pots and covered with soil. The compounds of the invention, formulated in the form of wettable powders (WP) or as emulsion concentrates (EC), are then applied onto the surface of the covering soil as aqueous suspension or emulsion with addition of 0.5% additive at a water application rate of 600 1/ha (converted). After the treatment, the pots are placed in a greenhouse and kept under good growth conditions for the trial plants. After about 3 weeks, the effect of the preparations is scored visually in comparison with untreated controls as percentages. For example, 100% activity=the plants have died, 0% activity=like control plants.
Tables B1 to B15 below show the effects of selected compounds of the general formula (I) according to Tables 1 and 2 on various harmful plants and an application rate corresponding to 320 g/ha and/or 80 g/ha, which were obtained by the experimental procedure mentioned above.
For example, compound nos. I-07, I-08, I-11, I-12, I-13, I-16, I-17, I-20, I-36, I-37, I-39, I-45, I-46, I-48, I-52 and I-53 in the pre-emergence method have very good action (80% to 100% herbicidal activity) against harmful plants such as Alopecurus myosuroides, Amaranthus retroflexus, Digitaria sanguinalis, Lolium rigidum, Polygonum convolvulus, Setaria viridis, Veronica persica and Viola tricolor at an application rate of 0.32 kg of active substance per hectare.

VERPE [2] = assay: Herbicidal pre-emergence action 2a (greenhouse pots, visual scoring); assay type: in vivo, Veronica persica; conditions: dosage 320 g/ha, visual scoring after about 3 weeks vs untreated controls
Method in brief: as §1

VIOTR [3] = assay: Herbicidal post-emergence action 1a (greenhouse pots, visual rating); assay type: in vivo, Viola tricolor; conditions: dosage 80 g/ha, visual rating about 3 weeks after treatment
Method in brief: (§3)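 Visual scoring versus untreated plants (100% = plants dead, 0% = as control) followed roughly 3 weeks in the greenhouse after treatment. Plants grown in sandy loam pots had been sprayed on green parts at the one-leaf stage, 2–3 weeks post-sowing, with aqueous WP/EC preparations containing 0.5% additive, 600 l/ha, at 320 and/or 80 g/ha.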

AMARE [4] = assay: as above; assay type: in vivo, Amaranthus retroflexus; conditions: dosage 80 g/ha, visual rating about 3 weeks after treatment
Method in brief: as §3

AMARE [5] = assay: Herbicidal pre-emergence action 2a (greenhouse pots, visual scoring); assay type: in vivo, Amaranthus retroflexus; conditions: dosage 320 g/ha, visual scoring after about 3 weeks vs untreated controls
Method in brief: as §1

SETVI = assay: as above; assay type: in vivo, Setaria viridis; conditions: dosage 320 g/ha, visual scoring after about 3 weeks vs untreated controls
Method in brief: as §1

POLCO [6] = assay: Herbicidal post-emergence action 1a (greenhouse pots, visual rating); assay type: in vivo, Polygonum convolvulus; conditions: dosage 80 g/ha, visual rating about 3 weeks after treatment
Method in brief: as §3

STEME [7] = assay: Herbicidal pre-emergence action 2a (greenhouse pots, visual scoring); assay type: in vivo, Stellaria media; conditions: dosage 320 g/ha, visual scoring after about 3 weeks vs untreated controls
From the text: as §2, with “[table] a) Seeds” for “a) Seeds”, “control plants. Tables B1 to B15 below show the effects of selected compounds of the general formula (I) according to Tables 1 and 2 on various harmful plants and an application rate corresponding to 320 g/ha and/or 80 g/ha, which were obtained by the experimental procedure mentioned above.” for “control plants.”

ALOMY [8] = assay: Herbicidal post-emergence action 1a (greenhouse pots, visual rating); assay type: in vivo, Alopecurus myosuroides; conditions: Dosage 80 g/ha; rated visually about 3 weeks after treatment; 100% = plants have died, 0% = like control plants
Method in brief: as §3

ABUTH = assay: as above; assay type: in vivo, Abutilon theophrasti; conditions: dosage 320 g/ha, visual rating about 3 weeks after treatment
Method in brief: as §3

DIGSA [9] = assay: as above; assay type: in vivo, Digitaria sanguinalis; conditions: rated visually about 3 weeks after treatment, 100% = plants have died, 0% = like control plants
Experimental: (§4) [table] a) Seeds of monocotyledonous and dicotyledonous weeds and crop plants are placed in sandy loam in plastic or organic plant pots, covered with soil and cultivated in a greenhouse under controlled growth conditions. 2 to 3 weeks after sowing, the test plants are treated at the one-leaf stage. The compounds of the invention, formulated in the form of wettable powders (WP) or as emulsion concentrates (EC), are then sprayed onto the green parts of the plants as aqueous suspension or emulsion with addition of 0.5% additive at a water application rate of 600 1/ha (converted). After the test plants have been kept in the greenhouse under optimum growth conditions for about 3 weeks, the activity of the preparations is rated visually in comparison to untreated controls. For example, 100% activity=the plants have died, 0% activity=like control plants. Tables A1 to A15 below show the effects of selected compounds of the general formula (I) according to Tables 1 and 2 on various harmful plants and an application rate corresponding to 320 g/ha and/or 80 g/ha, which were obtained by the experimental procedure mentioned above.

POLCO [10] = assay: Herbicidal pre-emergence action 2a (greenhouse pots, visual scoring); assay type: in vivo, Polygonum convolvulus; conditions: dosage 320 g/ha, visual scoring after about 3 weeks vs untreated controls
Method in brief: as §1

MATIN = assay: Herbicidal post-emergence action 1a (greenhouse pots, visual rating); assay type: in vivo, Matricaria inodora; conditions: dosage 320 g/ha, visual rating about 3 weeks after treatment
Method in brief: as §3

HORMU [11] = assay: Herbicidal pre-emergence action 2a (greenhouse pots, visual scoring); assay type: in vivo, Hordeum murinum; conditions: dosage 320 g/ha, visual scoring after about 3 weeks vs untreated controls
From the text: [table] a) Seeds of monocotyledonous and dicotyledonous weed plants and crop plants are placed in plastic or organic plant pots and covered with soil. The compounds of the invention, formulated in the form of wettable powders (WP) or as emulsion concentrates (EC), are then applied onto the surface of the covering soil as aqueous suspension or emulsion with addition of 0.5% additive at a water application rate of 600 1/ha (converted). After the treatment, the pots are placed in a greenhouse and kept under good growth conditions for the trial plants. After about 3 weeks, the effect of the preparations is scored visually in comparison with untreated controls as percentages. For example, 100% activity=the plants have died, 0% activity=like control plants. Tables B1 to B15 below show the effects of selected compounds of the general formula (I) according to Tables 1 and 2 on various harmful plants and an application rate corresponding to 320 g/ha and/or 80 g/ha, which were obtained by the experimental procedure mentioned above.

STEME [12] = assay: Herbicidal post-emergence action 1a (greenhouse pots, visual rating); assay type: in vivo, Stellaria media; conditions: Dosage 80 g/ha; rated visually about 3 weeks after treatment; 100% = plants have died, 0% = like control plants
Experimental: as §4

AVEFA [13] = assay: Herbicidal pre-emergence action 2a (greenhouse pots, visual scoring); assay type: in vivo, Avena fatua; conditions: dosage 320 g/ha, visual scoring after about 3 weeks
Method in brief: as §1

PHBPU = assay: Herbicidal post-emergence action 1a (greenhouse pots, visual rating); assay type: in vivo, Pharbitis purpurea; conditions: dosage 80 g/ha, visual rating about 3 weeks after treatment
Method in brief: as §3

VERPE [14] = assay: as above; assay type: in vivo, Veronica persica; conditions: dosage 80 g/ha, visual rating about 3 weeks after treatment
Method in brief: as §3

AVEFA [15] = assay: as above; assay type: in vivo, Avena fatua; conditions: Dosage 80 g/ha; rated visually about 3 weeks after treatment; 100% = plants have died, 0% = like control plants
Method in brief: as §3

VIOTR [16] = assay: Herbicidal pre-emergence action 2a (greenhouse pots, visual scoring); assay type: in vivo, Viola tricolor; conditions: dosage 320 g/ha, visual scoring after about 3 weeks vs untreated controls
Method in brief: as §1

ECHCG [17] = assay: Herbicidal post-emergence action 1a (greenhouse pots, visual rating); assay type: in vivo, Echinochloa crus-galli; conditions: rated visually about 3 weeks after treatment, 100% = plants have died, 0% = like control plants
Method in brief: as §3

HORMU [18] = assay: as above; assay type: in vivo, Hordeum murinum; conditions: rated visually about 3 weeks after treatment, 100% = plants have died, 0% = like control plants
Experimental: as §4

ALOMY [19] = assay: Herbicidal pre-emergence action 2a (greenhouse pots, visual scoring); assay type: in vivo, Alopecurus myosuroides; conditions: dosage 320 g/ha, visual scoring after about 3 weeks
Method in brief: as §1

DIGSA [20] = assay: as above; assay type: in vivo, Digitaria sanguinalis; conditions: dosage 320 g/ha, visual scoring after about 3 weeks
Method in brief: as §1

LOLRI = assay: Herbicidal post-emergence action 1a (greenhouse pots, visual rating); assay type: in vivo, Lolium rigidum; conditions: Dosage 80 g/ha; rated visually about 3 weeks after treatment; 100% = plants have died, 0% = like control plants
Method in brief: as §3

C=CCOC(=O)C(C)Oc1nn(-c2cnccn2)c(-c2ccc(F)nc2)c1Br (racemic) [Example I-13]
Pre-emergence action against ECHCG in % (ECHCG [1]): 100% | herbicidal efficacy against harmful plants in the case of pre-emergence treatment (in words) (harmful plants): good herbicidal efficacy | Pre-emergence action against VERPE in % (VERPE [2]): 100% | Post-emergence action against VIOTR in % (VIOTR [3]): 90% | Post-emergence action against AMARE in % (AMARE [4]): 80% | Pre-emergence action against AMARE in % (AMARE [5]): 100% | Pre-emergence action against SETVI in % (SETVI): 100% | Post-emergence action against POLCO in % (POLCO [6]): 80% | Pre-emergence action against STEME in % (STEME [7]): 90% | Post-emergence action against ALOMY in % (ALOMY [8]): 90% | Post-emergence action against ABUTH in % (ABUTH): 80% | Post-emergence action against DIGSA in % (DIGSA [9]; Dosage 80 g/ha): 80% | Post-emergence action against DIGSA in % (DIGSA [9]; Dosage 320 g/ha): 90% | Pre-emergence action against POLCO in % (POLCO [10]): 90% | Post-emergence action against MATIN in % (MATIN): 80% | Pre-emergence action against HORMU in % (HORMU [11]): 100% | Post-emergence action against STEME in % (STEME [12]): 90% | Pre-emergence action against AVEFA in % (AVEFA [13]): 90% | Post-emergence action against PHBPU in % (PHBPU): 80% | Post-emergence action against VERPE in % (VERPE [14]): 90% | Post-emergence action against AVEFA in % (AVEFA [15]): 100% | Pre-emergence action against VIOTR in % (VIOTR [16]): 100% | Post-emergence action against ECHCG in % (ECHCG [17]; Dosage 80 g/ha): 80% | Post-emergence action against ECHCG in % (ECHCG [17]; Dosage 320 g/ha): 90% | Post-emergence action against HORMU in % (HORMU [18]; Dosage 80 g/ha): 90% | Post-emergence action against HORMU in % (HORMU [18]; Dosage 320 g/ha): 90% | Pre-emergence action against ALOMY in % (ALOMY [19]): 100% | Pre-emergence action against DIGSA in % (DIGSA [20]): 100% | Post-emergence action against LOLRI in % (LOLRI): 80%
